Measurements as given in the supplement of paper PMC8149375.

How the values were obtained:
Conditions in all cases: treatment: drug + dasatinib (fixed dose, not stated); 5 days
[1] = system: SN12C; test: GI50 of drug in presence of dasatinib; higher = less potent
Procedure: (§1)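 Primary HTS combination arm: 8 RCC cell lines treated with 8 doses (up to 10 uM) of each library drug plus a fixed dose of dasatinib (dose not stated) for 5 days; viability read by CellTiter-Glo and normalised to DMSO. GI50 was fitted with XLfit, AUC is the area under the dose-response curve, and minimum viability is the lowest fraction of DMSO viability across doses.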

[2] = system: CAKI-1; test: as above
Procedure: as §1

[3] = system: UO-31; test: as above
Procedure: as §1

[4] = system: ACHN; test: as above
Procedure: as §1

[5] = system: 786-O; test: as above
Procedure: as §1

[6] = system: SN12C; test: AUC of dose-response viability curve, drug + dasatinib, normalised to DMSO (arbitrary (AUC of normalised viability)); higher = less growth inhibition
Procedure: as §1

[7] = system: CAKI-1; test: as above
Procedure: as §1

[8] = system: UO-31; test: as above
Procedure: as §1

[9] = system: ACHN; test: as above
Procedure: as §1

[10] = system: A498; test: as above
Procedure: as §1

[11] = system: 786-O; test: as above
Procedure: as §1

[12] = system: 769-P; test: as above
Procedure: as §1

[13] = system: TK-10; test: as above
Procedure: as §1

[14] = system: SN12C; test: minimum viability across doses, drug + dasatinib, relative to DMSO (fraction); higher = less growth inhibition
Procedure: as §1

[15] = system: CAKI-1; test: as above
Procedure: as §1

[16] = system: UO-31; test: as above
Procedure: as §1

[17] = system: ACHN; test: as above
Procedure: as §1

[18] = system: A498; test: as above
Procedure: as §1

[19] = system: 786-O; test: as above
Procedure: as §1

[20] = system: 769-P; test: as above
Procedure: as §1

[21] = system: TK-10; test: as above
Procedure: as §1

[22] = system: A498; test: GI50 of drug in presence of dasatinib; higher = less potent
Procedure: as §1

[23] = system: TK-10; test: as above
Procedure: as §1

[24] = system: 769-P; test: as above
Procedure: as §1

GI50 of drug [4] [nM]	GI50 of drug [5] [nM]	Compound	GI50 of drug [1] [nM]	GI50 of drug [2] [nM]	GI50 of drug [3] [nM]	AUC of dose-response viability curve [6]	AUC of dose-response viability curve [7]	AUC of dose-response viability curve [8]	AUC of dose-response viability curve [9]	AUC of dose-response viability curve [10]	AUC of dose-response viability curve [11]	AUC of dose-response viability curve [12]	AUC of dose-response viability curve [13]	minimum viability across doses [14]	minimum viability across doses [15]	minimum viability across doses [16]	minimum viability across doses [17]	minimum viability across doses [18]	minimum viability across doses [19]	minimum viability across doses [20]	minimum viability across doses [21]	GI50 of drug [22] [nM]	GI50 of drug [23] [nM]	GI50 of drug [24] [nM]
4.36	< 3	CO[C@H]1C[C@H]2CC[C@@H](C)[C@@](O)(O2)C(=O)C(=O)N2CCCC[C@H]2C(=O)O[C@H]([C@H](C)C[C@@H]2CC[C@H](OP(C)(C)=O)[C@H](OC)C2)CC(=O)[C@H](C)/C=C(\C)[C@@H](O)[C@@H](OC)C(=O)[C@H](C)C[C@H](C)/C=C/C=C/C=C/1C (stereo in doubt) [Deforolimus (Ridaforolimus)] + Cc1nc(Nc2ncc(C(=O)Nc3c(C)cccc3Cl)s2)cc(N2CCN(CCO)CC2)n1 [dasatinib]	25.6	16.8	28.6	1.67	1.38	1.39	1.18	1.95	1.11	1.71	1.98	0.407	0.295	0.257	0.263	0.493	0.287	0.397	0.4	–	–	–
3.25	< 3	CO[C@H]1CC2CC[C@@H](C)[C@@](O)(O2)C(=O)C(=O)N2CCCC[C@H]2C(=O)O[C@H]([C@H](C)C[C@@H]2CCC(OC(=O)C(C)(CO)CO)[C@H](OC)C2)CC(=O)[C@H](C)/C=C(\C)[C@@H](O)[C@@H](OC)C(=O)[C@H](C)C[C@H](C)/C=C/C=C/C=C/1C (stereo in doubt) [Temsirolimus (Torisel)] + Cc1nc(Nc2ncc(C(=O)Nc3c(C)cccc3Cl)s2)cc(N2CCN(CCO)CC2)n1 [dasatinib]	–	24.2	69.9	1.75	1.42	1.59	1.27	1.99	1.2	1.7	1.97	0.446	0.273	0.226	0.296	0.505	0.304	0.402	0.393	> 10000	512	–
> 10000	–	O=C1NC(=O)/C(=C/c2ccc(-c3ccc(F)cc3O)o2)S1 + Cc1nc(Nc2ncc(C(=O)Nc3c(C)cccc3Cl)s2)cc(N2CCN(CCO)CC2)n1 [dasatinib]	> 10000	> 10000	> 10000	2.41	2.4	3.97	2.15	3.96	2.08	2.41	2.51	0.651	0.628	1.02	0.567	1.06	0.449	0.532	0.649	> 10000	> 10000	> 10000
36.9	172	Cc1cnc(NC(=O)Nc2cc(Br)c(C)cc2OC[C@@H]2CNCCO2)cn1 + Cc1nc(Nc2ncc(C(=O)Nc3c(C)cccc3Cl)s2)cc(N2CCN(CCO)CC2)n1 [dasatinib]	2090	388	833	2.27	1.71	3.07	1.21	2.99	1.43	1.71	2.01	0.113	0.0829	0.00521	0.0412	0.0633	0.00234	0.0737	0.162	2120	559	–
81.4	–	C=CC(=O)N1CCC[C@@H](n2nc(-c3ccc(Oc4ccccc4)cc3)c3c(N)ncnc32)C1 + Cc1nc(Nc2ncc(C(=O)Nc3c(C)cccc3Cl)s2)cc(N2CCN(CCO)CC2)n1 [dasatinib]	> 10000	3280	8830	2.28	2.18	3.83	1.61	4.62	2	1.72	1.83	0.496	0.19	0.194	0.295	0.927	0.435	0.124	0.189	> 10000	264	212
< 3	< 3	CO[C@H]1C[C@@H]2CC[C@@H](C)[C@@](O)(O2)C(=O)C(=O)N2CCCC[C@H]2C(=O)O[C@H]([C@H](C)C[C@@H]2CC[C@@H](OCCO)[C@H](OC)C2)CC(=O)[C@H](C)/C=C(\C)[C@@H](O)[C@@H](OC)C(=O)[C@H](C)C[C@H](C)/C=C/C=C/C=C/1C [Everolimus (RAD001)] + Cc1nc(Nc2ncc(C(=O)Nc3c(C)cccc3Cl)s2)cc(N2CCN(CCO)CC2)n1 [dasatinib]	> 10000	117	231	1.93	1.7	1.79	1.06	2.43	1.06	1.75	1.95	0.489	0.353	0.396	0.225	0.645	0.253	0.416	0.426	> 10000	–	–
85.7	> 10000	COc1cc2ncnc(Nc3ccc(F)c(Cl)c3)c2cc1OCCCN1CCOCC1 [Gefitinib (Iressa)] + Cc1nc(Nc2ncc(C(=O)Nc3c(C)cccc3Cl)s2)cc(N2CCN(CCO)CC2)n1 [dasatinib]	> 10000	1730	6180	2.49	2.08	2.9	1.56	3.49	2.56	1.72	2.22	0.588	0.169	0.3	0.187	0.808	0.56	0.177	0.267	> 10000	1070	–
24.1	2410	Cl.Cl.NC1(c2ccc(-c3nc4ccn5c(=O)[nH]nc5c4cc3-c3ccccc3)cc2)CCC1 [MK-2206 dihydrochloride] + Cc1nc(Nc2ncc(C(=O)Nc3c(C)cccc3Cl)s2)cc(N2CCN(CCO)CC2)n1 [dasatinib]	> 10000	111	1740	2.18	1.69	2.61	1.45	2.94	2.02	2.05	2.1	0.551	0.102	0.0262	0.202	0.755	0.224	0.234	0.263	> 10000	1110	–
2890	> 10000	Cc1cn(-c2cc(NC(=O)c3ccc(C)c(Nc4nccc(-c5cccnc5)n4)c3)cc(C(F)(F)F)c2)cn1 [Nilotinib (AMN-107)] + Cc1nc(Nc2ncc(C(=O)Nc3c(C)cccc3Cl)s2)cc(N2CCN(CCO)CC2)n1 [dasatinib]	> 10000	7790	4880	2.55	2.38	3.2	2	3.37	2.77	1.98	2.53	0.687	0.491	0.262	0.461	0.811	0.717	0.331	0.524	> 10000	> 10000	–
< 3	< 3	CO[C@H]1C[C@@H]2CC[C@@H](C)[C@@](O)(O2)C(=O)C(=O)N2CCCC[C@H]2C(=O)O[C@H]([C@H](C)C[C@@H]2CC[C@@H](O)[C@H](OC)C2)CC(=O)[C@H](C)/C=C(\C)[C@@H](O)[C@@H](OC)C(=O)[C@H](C)C[C@H](C)/C=C/C=C/C=C/1C [Rapamycin (Sirolimus)] + Cc1nc(Nc2ncc(C(=O)Nc3c(C)cccc3Cl)s2)cc(N2CCN(CCO)CC2)n1 [dasatinib]	< 3	< 3	< 3	1.68	1.11	1.15	1.03	2.01	0.989	1.59	1.76	0.451	0.256	0.277	0.247	0.52	0.26	0.389	0.445	1050	–	–
37.3	< 3	COc1cc(N2CCC(N3CCN(C)CC3)CC2)ccc1Nc1ncc(Cl)c(Nc2ccccc2S(=O)(=O)C(C)C)n1 [TAE684 (NVP-TAE684)] + Cc1nc(Nc2ncc(C(=O)Nc3c(C)cccc3Cl)s2)cc(N2CCN(CCO)CC2)n1 [dasatinib]	427	224	–	1.82	1.51	2.04	1.15	2.64	1.55	1.83	2.06	0.0423	0.0167	0.0115	0.0286	0.348	0.0739	0.23	0.206	2870	640	–
–	> 10000	Cl.Cl.Clc1ccc(Nc2nnc(Cc3ccncc3)c3ccccc23)cc1 [Vatalanib dihydrochloride (PTK787)] + Cc1nc(Nc2ncc(C(=O)Nc3c(C)cccc3Cl)s2)cc(N2CCN(CCO)CC2)n1 [dasatinib]	> 10000	2760	> 10000	2.32	2.04	3.35	1.91	3.2	2.65	2.3	2.63	0.632	0.217	0.834	0.474	0.729	0.549	0.433	0.666	> 10000	> 10000	7920
74.8	2490	C=CC(=O)Nc1cccc(Oc2nc(Nc3ccc(N4CCN(C)CC4)cc3OC)ncc2Cl)c1 [WZ4002] + Cc1nc(Nc2ncc(C(=O)Nc3c(C)cccc3Cl)s2)cc(N2CCN(CCO)CC2)n1 [dasatinib]	2420	1180	1340	2.29	1.87	2.67	1.37	3.2	2.22	2.02	1.97	0.0353	0.145	0.0152	0.0147	0.459	0.405	0.2	0.0404	9590	617	–
